{
  "source": "patent US10265257B2",
  "about": "“Personal care composition” (Innospec Limited, priority 2007, dated 2019)",
  "key": {"[1]": {"assay": "Stability of SCMI in aqueous solution (amount of SCMI present over time)", "assay_type": "physicochemical", "conditions": "10 wt % aqueous solutions, initial pH 4.5, 5.5, 6.5, 7.5, 8.5 and 9.5, held at 48.9° C., 30 days", "procedure": "In a preliminary test the stability of SCMI in 10 wt % aqueous solutions adjusted to have initial pH values respectively of 4.5, 5.5, 6.5, 7.5, 8.5 and 9.5, each held at 48.9° C. for an extended period of days, were tested for the amount of SCMI present over the test period.\n(§1) The pH values were read using a standard electrode pH meter (Fisher Accument XL-25). The electrode was place in the composition (no further dilution) and the pH recorded."}, "[2]": {"assay": "pH stability of SCMI solutions over time", "assay_type": "physicochemical", "procedure": "as §1\nIn a preliminary test 10 wt % solutions of SCMI, adjusted to have initial pH values respectively of 4.5, 5.5, 6.5, 7.5, 8.5 and 9.5, each held at 48.9° C. for an extended period of days, were tested for their pH stability over the extended period. The pH testing was as described above."}, "[3]": {"assay": "Simple solubility tests in deionised water", "assay_type": "physicochemical"}, "Zein protein [4]": {"tested_on": "Zein protein", "assay": "Zein protocol in-vitro skin irritancy test", "conditions": "FIG. 3, surfactant solution 2 wt %, 1 hour at 35° C.", "text": "(§2) The Zein protocol is an in-vitro test to measure skin irritancy of formulations. The method makes use of the correlation between binding ability of surfactants to proteins and the damage the surfactant causes to the skin. […] Zein protein, an insoluble protein extracted from corn kernel, is used as a model for epidermal protein and the solubility of the Zein protein in surfactant solutions is believed to be a reliable guide for the skin irritancy caused by the surfactant. The test involves establishing the amount of Zein protein which can be solubilised by surfactant. 5 g of Zein protein may be dispersed in 40 cm^3 of surfactant solution (at 2 wt % concentration). The mixture is shaken for 1 hour at 35° C., and immediately centrifuged to remove any non-solubilised Zein. The amount solubilised is estimated from the solution nitrogen content using micro-Kjeldahl method (making allowance for any nitrogen in the compound tested)."}, "Zein protein [5]": {"tested_on": "Zein protein", "conditions": "stated as known for comparison compounds; cited from earlier work"}, "Zein protein [6]": {"tested_on": "Zein protein", "text": "as §2"}},
  "note": "Where two headings read alike, the source gives them in different places.",
  "data": [
    {"substance": "sodium cocoylmethylisethionate [SCMI]", "values": [
      {"measurement": "percentage of SCMI present, Day 0 to Day 30", "setting": "[1]", "result": "does not change"},
      {"measurement": "pH change of sample held at highest pH value", "setting": "[2]; 10 wt % solution, initial pH 9.5, 48.9° C., first few days", "result": "small pH reduction"},
      {"measurement": "pH values from Day 0 to Day 30", "setting": "[2]; 10 wt % solutions, initial pH 4.5 to 9.5, held at 48.9° C., 30 days", "result": "substantially unchanged"},
      {"measurement": "appearance of 10 wt % in deionised water (solubility test)", "setting": "[3]", "result": "clear solution"},
      {"measurement": "skin irritancy (Zein protocol)", "setting": "Zein protein [4]", "result": "low irritancy"}
    ]},
    {"substance": "sodium cocoyl isethionate [SCI]", "values": [
      {"measurement": "skin irritancy, known", "setting": "Zein protein [5]", "result": "low irritancy"}
    ]},
    {"substance": "sodium laureth sulfate [SLES]", "values": [
      {"measurement": "skin irritancy, known", "setting": "Zein protein [5]", "result": "significant irritancy"}
    ]},
    {"substance": "sodium lauroylmethylisethionate [SLMI]", "values": [
      {"measurement": "skin irritancy (Zein protocol)", "setting": "Zein protein [6]", "result": "low irritancy"}
    ]}
  ]
}
